As a reminder, the tissue uptake is the percentage of the injected dose found per gram of tissue. The term half-life denotes how long it takes for the measured level to halve.

The subject of data set [1] is Opossum kidney proximal tubule cells. Kind of data set: Proximal tubule epithelial cell uptake assay. Type of data set: cell-based. The note with it: Table 10A; mean percent uptake in opossum kidney cells, 1 h at 37° C., relative to control miniprotein C306. How it is done:
FIG. 8 is a bar graph of the percent uptake of exemplary miniproteins tested at 20 µM in a proximal tubule epithelial cell assay vs 20 μM control peptide set at 100%. […]
Opossum kidney proximal tubule cells were plated in the upper chamber of 24-well transwell plates containing 600 μL of growth media in the lower chamber and were incubated overnight at 37° C., in 5% CO2. The following day, the media was changed, and cells were incubated an additional 24 h with orbital shaking at 146 RPM. Next, cells were washed and treated in duplicates with biotinylated exemplary miniproteins pre-complexed with streptavidin-AF647 for 1 h at 37° C., and 5% C02 with continuous orbital shaking. Following incubation, cells were washed three times with 1×PBS and lysed with RIPA buffer containing protease and phosphatase inhibitor cocktail and a universal nuclease for 30 minutes. Uptake was measured on 100 μL of lysates using a fluorimeter. Mean % uptake values of control miniprotein C306 in the presence of exemplary miniproteins are provided in TABLE 10A and summarized in FIG. 8.
Uptake of engineered Nectin-4 miniproteins with further modified lysine residues (C298-C304, as described in Example 4B) was evaluated. Percent uptake of these exemplary Nectin-4-targeting miniproteins and C251 were determined against a control miniprotein, C306, using opossum kidney proximal tubule cells as described in Example 18A. Percent uptake of C298, which has an unmodified lysine (K) at amino acid position 26 (along the length of the miniprotein sequence. SEQ ID NO: 162), was 37% in the presence of […]. All other miniproteins having a modified lysine (modified with one or more small alkyl groups of monomethyl, dimethyl, trimethyl, or isopropyl group) had (i) kidney uptake similar to that of C251 and (ii) reduced uptake as compared to C298, which has an unmodified lysine at position 26.

A short description of data set [2]: In vivo biodistribution of 111In-labeled miniproteins by SPECT/CT, HT-1376 xenograft. On the set-up: species or system mouse. The note with it: female, athymic nude, mouse, in vivo. The text has this:
HT-1376 is a human cell line that expresses Nectin-4.
Humane endpoints: All animals were euthanized following the final imaging time point and carcasses were discarded according to IACUC protocols.
Image Processing: Images were generated as SPECT/CT pairs with the SPECT reported in units of activity.
Image generation: After the preprocessing described in A, individual maximum intensity projections (MIPs) were created with VivoQuant software for each subject at each time point and scaled in percent injected dose per gram (% ID/g). The CT for each image was windowed from −500 to 4500 Hounsfield Units (HU). The SPECT was windowed at various ranges to highlight different regions of uptake. Images were then stitched together using Image Magick based python tools to create montages of subjects over time and time points over groups.

The nature of data set [3]: In vitro metabolic stability in serum/plasma (percent parent remaining, LC-MS). Type of data set: in vitro ADME. The note with it: mouse. On the procedure:
Exemplary miniproteins were spiked into biological matrices at initial concentration between 1-2 μM. Tested matrices were varied by species (mouse, rat, human) and type (plasma, serum, and kidney brush border membrane (kBBM) preparations tested each from 0.625-100 μg/mL protein content). Tested conditions were incubated with miniproteins at 37° C. for 4 h. At collection points of 0, 15, 30, 60, 120, 240 minutes, 50 μL of each condition were quenched by organic solvent (methanol or acetonitrile) or the addition of 4% phosphoric acid solution followed by solid-phase extraction. Fractions of each quenched timepoint were subsequently assayed for parent miniproteins concentration by high resolution LC-MS. Percent-parent-remaining-time plots were constructed from the ratio of each given time collection to the time-zero parent miniprotein. Percent-parent-remaining in mouse serum and plasma for exemplary miniproteins are recorded in TABLE 11.

Bridges are numbered along the chain shown (N, C = ends). The star is where a group is joined. DOTA = O=C(O)CN1CCN(CC(=O)O)CCN(CC(=O)*)CCN(CC(=O)O)CC1; PEG4 = NCCOCCOCCOCCOCCC(=O)O

Consider `CC[C@H](C)[C@@H]1NC(=O)[C@H](Cc2ccc(O)cc2)NC(=O)[C@H](Cc2ccc(O)cc2)NC(=O)[C@@H]2CSSC[C@@H](C(=O)N[C@@H](CO)C(=O)O)NC(=O)CNC(=O)[C@H](CC(C)C)NC(=O)[C@H](CC(N)=O)NC(=O)[C@H](CC(=O)O)NC(=O)[C@H](CC(C)C)NC(=O)[C@H]([C@@H](C)CC)NC(=O)[C@H](CCC(=O)O)NC(=O)[C@H](CCC(=O)O)NC(=O)[C@H]([C@@H](C)CC)NC(=O)[C@H](CSSC[C@H](NC(=O)CCOCCOCCOCCOCCNC(=O)CCCC[C@@H]3SC[C@@H]4NC(=O)N[C@@H]43)C(=O)N[C@@H](CCC(=O)O)C(=O)N[C@@H](Cc3ccc(O)cc3)C(=O)N[C@@H](CC(=O)O)C(=O)N[C@@H](CCC(=O)O)C(=O)N[C@@H](CCC(=O)O)C(=O)N[C@@H](Cc3ccccc3)C(=O)N[C@@H](Cc3ccccc3)C(=O)N[C@@H]([C@@H](C)O)C(=O)N[C@@H](C)C(=O)N[C@@H](CC(C)C)C(=O)N[C@@H](CCCCN)C(=O)N[C@@H](CCCNC(=N)N)C(=O)N[C@@H](CC(C)C)C(=O)N[C@@H](CCCNC(=N)N)C(=O)NCC(=O)NCC(=O)N[C@@H](CC(=O)O)C(=O)N[C@@H]([C@@H](C)CC)C(=O)N2)NC(=O)[C@H](CC(C)C)NC(=O)CNC(=O)[C@@H]2CCCN2C(=O)[C@H](CC(C)C)NC(=O)[C@H](Cc2ccc(O)cc2)NC(=O)[C@H](CCC(N)=O)NC(=O)[C@H](Cc2ccccc2)NC(=O)[C@H](CO)NC(=O)[C@H](C)NC(=O)[C@H](CCC(N)=O)NC1=O` [Compound C111], for which the “% Uptake of C306 (Control)” value in data set [1] came to 20.8%.
In data set [2], `CC[C@H](C)[C@@H]1NC(=O)[C@H](Cc2ccc(O)cc2)NC(=O)[C@H](CCC(=O)O)NC(=O)[C@@H]2CSSC[C@@H](C(=O)N[C@@H](CO)C(=O)O)NC(=O)CNC(=O)[C@H](CC(C)C)NC(=O)[C@H](CC(N)=O)NC(=O)[C@H](CC(=O)O)NC(=O)[C@H](CC(C)C)NC(=O)[C@H]([C@@H](C)CC)NC(=O)[C@H](CCC(=O)O)NC(=O)[C@H](CCC(=O)O)NC(=O)[C@H]([C@@H](C)CC)NC(=O)[C@H](CSSC[C@H](NC(=O)CCOCCOCCOCCOCCNC(=O)CN3CCN(CC(=O)O)CCN(CC(=O)O)CCN(CC(=O)O)CC3)C(=O)N[C@@H](CC(=O)O)C(=O)N[C@@H](Cc3ccc(O)cc3)C(=O)N[C@@H](CC(=O)O)C(=O)N[C@@H](CCC(=O)O)C(=O)N[C@@H](CCC(N)=O)C(=O)N[C@@H](Cc3ccccc3)C(=O)N[C@@H](Cc3ccccc3)C(=O)N[C@@H]([C@@H](C)O)C(=O)N[C@@H](C)C(=O)N[C@@H](CC(C)C)C(=O)N[C@@H](CCCCN)C(=O)N[C@@H](CCCNC(=N)N)C(=O)N[C@@H](CC(C)C)C(=O)N[C@@H](CCCNC(=N)N)C(=O)NCC(=O)NCC(=O)N[C@@H](CC(=O)O)C(=O)N[C@@H]([C@@H](C)CC)C(=O)N2)NC(=O)[C@H](CC(C)C)NC(=O)CNC(=O)[C@@H]2CCCN2C(=O)[C@H](CC(C)C)NC(=O)[C@H](Cc2ccc(O)cc2)NC(=O)[C@H](CCC(N)=O)NC(=O)[C@H](Cc2ccccc2)NC(=O)[C@H](CO)NC(=O)[C@H](C)NC(=O)[C@H](CCC(N)=O)NC1=O` [Compound C241] displayed a tissue uptake at 4 h of 60.1 %ID/g and a tissue uptake at 24 h of 38.3 %ID/g. Moreover, in data set [3], the half-life was > 12 h. For the same compound, in data set [3] (plasma), the half-life is > 12 h.
Take `CC[C@H](C)[C@@H]1NC(=O)[C@H](Cc2ccc(O)cc2)NC(=O)[C@H](CCC(=O)O)NC(=O)[C@@H]2CSSC[C@@H](C(=O)N[C@@H](CO)C(=O)O)NC(=O)CNC(=O)[C@H](CC(C)C)NC(=O)[C@H](CC(N)=O)NC(=O)[C@H](CC(=O)O)NC(=O)[C@H](CC(C)C)NC(=O)[C@H]([C@@H](C)CC)NC(=O)[C@H](CCC(=O)O)NC(=O)[C@H](CCC(=O)O)NC(=O)[C@H]([C@@H](C)CC)NC(=O)[C@H](CSSC[C@H](NC(=O)CCOCCOCCOCCOCCNC(=O)CN3CCN(CC(=O)O)CCN(CC(=O)O)CCN(CC(=O)O)CC3)C(=O)N[C@@H](CC(=O)O)C(=O)N[C@@H](Cc3ccc(O)cc3)C(=O)N[C@@H](CC(=O)O)C(=O)N[C@@H](CCC(=O)O)C(=O)N[C@@H](CCC(N)=O)C(=O)N[C@@H](Cc3ccccc3)C(=O)N[C@@H](Cc3ccccc3)C(=O)N[C@@H]([C@@H](C)O)C(=O)N[C@@H](C)C(=O)N[C@@H](CC(C)C)C(=O)N[C@@H](C)C(=O)N[C@@H](CCCNC(=N)N)C(=O)N[C@@H](CC(C)C)C(=O)N[C@@H](CCCNC(=N)N)C(=O)NCC(=O)N[C@@H](C)C(=O)N[C@@H](CC(=O)O)C(=O)N[C@@H]([C@@H](C)CC)C(=O)N2)NC(=O)[C@H](CCC(=O)O)NC(=O)CNC(=O)[C@@H]2CCCN2C(=O)[C@H](CC(C)C)NC(=O)[C@H](Cc2ccc(O)cc2)NC(=O)[C@H](CCC(N)=O)NC(=O)[C@H](Cc2ccccc2)NC(=O)[C@H](CO)NC(=O)[C@H](C)NC(=O)[C@H](CCC(N)=O)NC1=O` [Compound C245]: in data set [2], the tissue uptake at 4 h came out at 61 %ID/g and the tissue uptake at 24 h was determined as 33.5 %ID/g. Also, the half-life in data set [3] was > 12 h. In data set [3] (plasma), the half-life was > 12 h.
In data set [2], `CC[C@H](C)[C@@H]1NC(=O)[C@H](Cc2ccc(O)cc2)NC(=O)[C@H](CCC(=O)O)NC(=O)[C@@H]2CSSC[C@@H](C(=O)N[C@@H](CO)C(=O)O)NC(=O)CNC(=O)[C@H](CC(C)C)NC(=O)[C@H](CC(N)=O)NC(=O)[C@H](CC(=O)O)NC(=O)[C@H](CC(C)C)NC(=O)[C@H]([C@@H](C)CC)NC(=O)[C@H](CCC(=O)O)NC(=O)[C@H](CCC(=O)O)NC(=O)[C@H]([C@@H](C)CC)NC(=O)[C@H](CSSC[C@H](NC(=O)CCOCCOCCOCCOCCNC(=O)CN3CCN(CC(=O)O)CCN(CC(=O)O)CCN(CC(=O)O)CC3)C(=O)N[C@@H](CC(=O)O)C(=O)N[C@@H](Cc3ccc(O)cc3)C(=O)N[C@@H](CC(=O)O)C(=O)N[C@@H](CCC(=O)O)C(=O)N[C@@H](CCC(N)=O)C(=O)N[C@@H](Cc3ccccc3)C(=O)N[C@@H](Cc3ccccc3)C(=O)N[C@@H]([C@@H](C)O)C(=O)N[C@@H](C)C(=O)N[C@@H](CC(C)C)C(=O)N[C@@H](CCCCN)C(=O)N[C@@H](CCCNC(=N)N)C(=O)N[C@@H](CC(C)C)C(=O)N[C@@H](CCCNC(=N)N)C(=O)NCC(=O)N[C@@H](C)C(=O)N[C@@H](CC(=O)O)C(=O)N[C@@H]([C@@H](C)CC)C(=O)N2)NC(=O)[C@H](CCC(=O)O)NC(=O)CNC(=O)[C@@H]2CCCN2C(=O)[C@H](CC(C)C)NC(=O)[C@H](Cc2ccc(O)cc2)NC(=O)[C@H](CCC(N)=O)NC(=O)[C@H](Cc2ccccc2)NC(=O)[C@H](CO)NC(=O)[C@H](C)NC(=O)[C@H](CCC(N)=O)NC1=O` [Compound C271] displayed a tissue uptake at 4 h of 59.1 %ID/g and a tissue uptake at 24 h of 34.3 %ID/g. The half-life in data set [3] is > 12 h. For the same compound, the half-life in data set [3] (plasma) was > 12 h.
Regarding “{DOTA-PEG4}-CEYDEEFFTALARLRGDDICSYIQAKFQYLPGLCIEEILDNLGCS-OH (disulfide 1-34, 20-44 (inferred)) [Compound C293]”, in data set [2], the tissue uptake at 4 h stood at 55.8 %ID/g and the tissue uptake at 24 h was 32.6 %ID/g. For the same compound, the half-life in data set [3] was > 12 h. Further, the half-life in data set [3] (plasma) is > 12 h.
In data set [2], “{DOTA-PEG4}-CEYDEQFFTALKRLRGADICSYIQASFQYLPGLCIEEILDNLGCS-OH (disulfide 1-34, 20-44) [Compound C250]” displayed a tissue uptake at 4 h of 67.5 %ID/g and a tissue uptake at 24 h of 34.9 %ID/g. The half-life in data set [3] was > 12 h. Moreover, the half-life in data set [3] (plasma) is > 12 h.
